From US10881106B2, “Herbicidal pyridazinone compounds” (SYNGENTA PARTICIPATIONS AG, priority 2016, dated 2021)

Tests used:
Format in all cases: in vivo
[1] = tested on: Zea mays (ZEAMX); experiment: Post-emergence glasshouse herbicide test, percentage damage to crop plant; conditions: POST Application, 125 g/ha, evaluated after 14 days; crop (corn)
Experimental: (§1) Seeds of a variety of test species were sown in standard soil in pots (Amaranthus retoflexus (AMARE), Abutilon theophrasti (ABUTH), Digitaria sanguinalis (DIGSA), Setaria faberi (SETFA) and Zea mays (ZEAMX). After cultivation for 10 days under controlled conditions in a glasshouse (at 24/16° C., day/night; 14 hours light; 65% humidity), the plants were sprayed with an aqueous spray solution derived from the formulation of the technical active ingredient in 0.6 ml acetone and 45 ml formulation solution containing 10.6% Emulsogen EL (Registry number 61791-12-6), 42.2% N-methyl pyrrolidone, 42.2% dipropylene glycol monomethyl ether (CAS RN 34590-94-8) and 0.2% X-77 (CAS RN 11097-66-8). The test plants were then grown in a glasshouse under controlled conditions in a glasshouse (at 24/16° C., day/night; 14 hours light; 65% humidity) and watered twice daily. After 14 days the test is evaluated for the percentage damage caused to the plant. The biological activities are shown in the following table on a five point scale (5=80-100%; 4=60-79%; 3=40-59%; 2=20-39%; 1=0-19%).

[2] = tested on: Digitaria sanguinalis (DIGSA); experiment: Post-emergence glasshouse herbicide test, percentage damage to plant; conditions: POST Application, 125 g/ha, evaluated after 14 days
Experimental: as §1

[3] = tested on: Setaria faberi (SETFA); experiment: as above; conditions: POST Application, 125 g/ha, evaluated after 14 days
Experimental: as §1

[4] = tested on: Amaranthus retoflexus (AMARE); experiment: as above; conditions: POST Application, 125 g/ha, evaluated after 14 days
Experimental: as §1

[5] = tested on: Abutilon theophrasti (ABUTH); experiment: as above; conditions: POST Application, 125 g/ha, evaluated after 14 days
Experimental: as §1

Cc1cc(C(=O)C2=C(O)CCCC2=O)c(=O)n(CC(=O)N(C)C)n1 [Compound 1.001]
ZEAMX percentage damage caused to the plant (five point scale) [1]: 1 (1=0-19%)
DIGSA percentage damage caused to the plant (five point scale) [2]: 5 (5=80-100%)
SETFA percentage damage caused to the plant (five point scale) [3]: 5 (5=80-100%)
AMARE percentage damage caused to the plant (five point scale) [4]: 5 (5=80-100%)
ABUTH percentage damage caused to the plant (five point scale) [5]: 5 (5=80-100%)

Cc1cc(C(=O)C2=C([O-])CCCC2=O)c(=O)n(CCC(=O)N(C)C)n1.[Na+] [Compound 1.002, sodium 2-[2-[3-(dimethylamino)-3-oxo-propyl]-6-methyl-3-oxo-pyridazine-4-carbonyl]-3-oxo-cyclohexen-1-olate]
ZEAMX percentage damage caused to the plant (five point scale) [1]: 1 (1=0-19%)
DIGSA percentage damage caused to the plant (five point scale) [2]: 5 (5=80-100%)
SETFA percentage damage caused to the plant (five point scale) [3]: 5 (5=80-100%)
AMARE percentage damage caused to the plant (five point scale) [4]: 5 (5=80-100%)
ABUTH percentage damage caused to the plant (five point scale) [5]: 5 (5=80-100%)

Cc1cc(C(=O)C2=C(O)CCCC2=O)c(=O)n(CCC(=O)N2CCOCC2)n1 [Compound 1.004]
ZEAMX percentage damage caused to the plant (five point scale) [1]: 1 (1=0-19%)
DIGSA percentage damage caused to the plant (five point scale) [2]: 5 (5=80-100%)
SETFA percentage damage caused to the plant (five point scale) [3]: 5 (5=80-100%)
AMARE percentage damage caused to the plant (five point scale) [4]: 5 (5=80-100%)
ABUTH percentage damage caused to the plant (five point scale) [5]: 5 (5=80-100%)

CNC(=O)CCn1nc(C)cc(C(=O)C2=C(O)CCCC2=O)c1=O [Compound 1.006]
ZEAMX percentage damage caused to the plant (five point scale) [1]: 1 (1=0-19%)
DIGSA percentage damage caused to the plant (five point scale) [2]: 5 (5=80-100%)
SETFA percentage damage caused to the plant (five point scale) [3]: 5 (5=80-100%)
AMARE percentage damage caused to the plant (five point scale) [4]: 5 (5=80-100%)
ABUTH percentage damage caused to the plant (five point scale) [5]: 4 (4=60-79%)

CCN(CC)C(=O)CCn1nc(C)cc(C(=O)C2=C(O)CCCC2=O)c1=O [Compound 1.007]
ZEAMX percentage damage caused to the plant (five point scale) [1]: 1 (1=0-19%)
DIGSA percentage damage caused to the plant (five point scale) [2]: 5 (5=80-100%)
SETFA percentage damage caused to the plant (five point scale) [3]: 5 (5=80-100%)
AMARE percentage damage caused to the plant (five point scale) [4]: 5 (5=80-100%)
ABUTH percentage damage caused to the plant (five point scale) [5]: 5 (5=80-100%)

CNC(=O)OCCn1nc(C)cc(C(=O)C2=C(O)CCCC2=O)c1=O [Compound 1.008]
ZEAMX percentage damage caused to the plant (five point scale) [1]: 1 (1=0-19%)
DIGSA percentage damage caused to the plant (five point scale) [2]: 5 (5=80-100%)
SETFA percentage damage caused to the plant (five point scale) [3]: 5 (5=80-100%)
AMARE percentage damage caused to the plant (five point scale) [4]: 5 (5=80-100%)
ABUTH percentage damage caused to the plant (five point scale) [5]: 5 (5=80-100%)

Cc1cc(C(=O)C2=C(O)CCCC2=O)c(=O)n(CCOC(=O)N(C)C)n1 [Compound 1.009]
ZEAMX percentage damage caused to the plant (five point scale) [1]: 1 (1=0-19%)
DIGSA percentage damage caused to the plant (five point scale) [2]: 5 (5=80-100%)
SETFA percentage damage caused to the plant (five point scale) [3]: 4 (4=60-79%)
AMARE percentage damage caused to the plant (five point scale) [4]: 5 (5=80-100%)
ABUTH percentage damage caused to the plant (five point scale) [5]: 5 (5=80-100%)

Cc1cc(C(=O)C2=C([O-])CC(C)CC2=O)c(=O)n(CCC(=O)N(C)C)n1.[Na+] (centres unmarked) [Compound 1.010]
ZEAMX percentage damage caused to the plant (five point scale) [1]: 1 (1=0-19%)
DIGSA percentage damage caused to the plant (five point scale) [2]: 5 (5=80-100%)
SETFA percentage damage caused to the plant (five point scale) [3]: 5 (5=80-100%)
AMARE percentage damage caused to the plant (five point scale) [4]: 5 (5=80-100%)
ABUTH percentage damage caused to the plant (five point scale) [5]: 5 (5=80-100%)

CCN(C)C(=O)CCn1nc(C)cc(C(=O)C2=C([O-])CCCC2=O)c1=O.[Na+] [Compound 1.013]
ZEAMX percentage damage caused to the plant (five point scale) [1]: 1 (1=0-19%)
DIGSA percentage damage caused to the plant (five point scale) [2]: 5 (5=80-100%)
SETFA percentage damage caused to the plant (five point scale) [3]: 5 (5=80-100%)
AMARE percentage damage caused to the plant (five point scale) [4]: 5 (5=80-100%)
ABUTH percentage damage caused to the plant (five point scale) [5]: 5 (5=80-100%)

Cc1cc(C(=O)C2=C([O-])CCCC2=O)c(=O)n(CCC(=O)N(C)CC(F)(F)F)n1.[Na+] [Compound 1.014]
ZEAMX percentage damage caused to the plant (five point scale) [1]: 1 (1=0-19%)
DIGSA percentage damage caused to the plant (five point scale) [2]: 5 (5=80-100%)
SETFA percentage damage caused to the plant (five point scale) [3]: 5 (5=80-100%)
AMARE percentage damage caused to the plant (five point scale) [4]: 5 (5=80-100%)
ABUTH percentage damage caused to the plant (five point scale) [5]: 5 (5=80-100%)
